In article PMC3359661, “FK228 Analogues Induce Fetal Hemoglobin in Human Erythroid Progenitors” (Anemia, 2012):

Tests used:
[1] = system: HbF-positive primary erythroid progenitors; experiment: Anti-HbF FITC immunostaining of primary erythroid progenitors; type: cell-based, human; settings: anti-HbF FITC / DAPI, 500 cells counted; 15.5% HbF-positive at baseline in untreated cells
Protocol: The two-phase liquid culture system was established as previously published by Fibach et al. using buffy coat mononuclear cells, purchased from Carter Blood Care (Fort Worth, TX) in accordance with the guidelines of the Institutional Review Board at the University of Texas at Dallas. During phase 1, cells were grown in IMDM medium with 30% fetal bovine serum and 50 ng/mL each of the granulocyte-monocyte colony-stimulating factor, Interleukin-3, and stem cell factor. Subsequently, phase 2 was initiated on day 7 with the addition of erythropoietin (2 U/mL) and stem cell factor (50 ng/mL). The cells were treated on Day 11 with the different test compounds and harvested on Day 14 (72 hr incubation).
Primary erythroid progenitor cytospin cell preparations were fixed with 4% paraformaldehyde in phosphate buffered saline for 15 min, washed, and then permeabilized with 0.3% Trition-100 solution for 10 min. Cells were then blocked in a 5% bovine serum albumin solution and immunostaining performed at 4°C overnight with anti-HbF fluorescein isothiocyanate (FITC) conjugated antibody (Bethyl Laboratories Inc., TX). Cell nuclei were stained with mounting medium containing 4′,6-diamidino-2-phenylindole (DAPI; Santa Cruz Biotechnology, CA). Primary cells were photographed with an Olympus BX 51 phase contrast epifluorescent microscope equipped with Hoffman Modulation optics. Phase-contrast images were recorded with a CCD camera (1/100 sec exposure) and fluorescence images were photographed through 485/520 nm emission filter. The percent of HbF positive cells was calculated by dividing the number of FITC positive cells by total cells (DAPI positive).
Figure 3 JMA33 and JMA26 induce HbF in primary erythroid cells. (a) Day 11 erythroid progenitors were treated for 48 hr with the controls agents and the FK228 analogues shown and then analyzed by RT-qPCR. Untreated cells (UT) were used as a control and normalized to one. Data were calculated as the means ± SEM. […] The images generated were used to count 500 DAPI positive cells and the %FITC positive cells were calculated accordingly.

[2] = system: γ-globin promoter activity in KU812-γF/βR stable lines; experiment: KU812 dual-luciferase reporter stable lines (μLCRβprRluc AγprFluc), γ-globin promoter activity; type: cell-based, human; settings: 48 hr; for Fold change (γ/γ + 2β): untreated normalized to one
Text: KU812 stable cell lines were created by co-transfecting wild-type KU812 cells with pEGFP-NI (G418 selectable marker) and theμLCRβ prRluc ^A γ prFluc dual-reporter a kind gifts from Dr. George Stamatoyannopoulos (University of Washington). […] Likewise, 1.4 kb of human Aγ-globin promoter was inserted upstream of firefly luciferase to create ^A γ prFluc. The μLCR (locus control region), Pβ prRluc, and ^A γ prFluc fragments were subsequently cloned into the mammalian vector, pRL-null.
After 72 hr, G418 was added at a concentration of […] for 3 days then maintained under selection pressure indefinitely at a concentration of […]. KU812 stable lines were treated with the various drugs at the same concentrations described above. FK228 and analogues were screened at concentrations between 1–1000 nM for 48 hr and cell toxicity was monitored by 2% Trypan blue exclusion. The effect of drug treatments on γ-globin and β-globin promoter activity was monitored by luciferase assay.
Luciferase activity was monitored under the different experimental conditions using the Dual Luciferase Assay Reporter System (Promega, Madison, WI). The activity of firefly luciferase represents γ-globin promoter activity (γF), while the renilla luciferase is the read-out for β-globin promoter activity (βR). The β-globin promoter was strategically cloned between the LCR and γ-globin promoter to increase β expression, while simultaneously increasing the sensitivity of detection of γ-globin gene inducers.
After drug treatments, KU812 stable cells were washed with 1X phosphate buffered saline and lysed in 1X Passive Lysis Buffer for 15 min, then protein extracts were added to the Luciferase Assay Reagent II and firefly luciferase activity quantified in a Turner Designs TD-20/20 luminometer (Sunnyvale, CA). To measure βR activity, Stop & Glo Reagents was added to measure the renilla luciferase activity. Total protein was determined by Bradford assay on a Beckman DU 640 spectrophotometer (Chaska, MN) and luciferase activity was corrected for total protein.
Subsequently, three independent dual-luciferase reporter KU812 stable cell lines were established to analyze the ability FK228 analogues to induce γ-globin promoter activity without an effect on β-globin transcription. […] Since the firefly luciferase gene (γF) has approximately […] luminescence than the renilla gene (βR), the renilla activity was multiplied by two to adjust for the difference in luminescence yielding the γ/γ+2β final measurement. The FK228 analogues were examined at concentrations ranging from 1–1000 nM in the three stable lines. After 48-hour treatments, cells were harvested and protein isolated for luciferase activity using the Dual Luciferase Reporter Assay.

[3] = system: γ-promoter activity in GM979 stable line; settings: μLCRβprRluc AγprFluc GM979 stable line; cited from earlier work
Text: Many published studies have shown that primary erythroid cells remain the best system to confirm HbF-inducing agents and to serve as a predictor of efficacy in vivo. Human burst forming units—erythroid cells in clonogenic assays or erythroid progenitors grown in liquid culture [39, 41]—have been used to evaluate putative HbF inducers. However, these assays are not easily adaptable to large-scale drug screening, thus immortalized cell lines have been investigated for this purpose.

## FK228
[1]
  increase in HbF-positive cells: 3.5 fold
[2]; Line 1, firefly (γ) / renilla (β) luciferase corrected for total protein, mean, conc: Cys 10 mM, Hemin 50 μM, SAHA 2000 nM, FK228 1.5 nM, 1127Ox 1000 nM, JMA1 1.5 nM, JMA2 1.0 nM, JMA12 1000 nM, JMA26 500 nM, JMA33 1000 nM, JMA112 100 nM, untreated 0.0402
  γ/γ + 2β Mean: 0.1197
[2]; Line 1, concentrations as in E1
  Fold change (γ/γ + 2β): 2.975
[2]; Line 2, concentrations as in E1, untreated 0.1573
  γ/γ + 2β Mean: 0.6167
[2]; Line 2, concentrations as in E1
  Fold change (γ/γ + 2β): 3.929
[2]; Line 3, concentrations as in E1, untreated 0.0721
  γ/γ + 2β Mean: 0.1583
[2]; Line 3, concentrations as in E1
  Fold change (γ/γ + 2β): 2.194
[3]
  concentration inducing γ-promoter activity: 1 nM
